Source: patent US5785948A, “Metal chelate forming peptides and use thereof represented by three amino acid sequences” (Nihon Medi-Physics Co., Ltd., priority 1994, dated 1998)
Where no end group is shown, it is not given here.

Assays:
Tumor cells HEp2 = experiment: Imaging of tumor in HEp2 tumor-bearing nude mouse (gamma camera, organ radioactivity); assay type: in vivo, BALB/C nude mouse; settings: twenty minutes after injection
Method: Tumor cells HEp2 (5×10^6 cells, Human Epidermoid Carcinoma; ATCC No. CCL 23) were suspended in 1.0 ml of medium (Minimum essential medium (Eagle's) with Earle's BSS, 90% fetal bovine serum, 10%), and 100 μl of the suspension was subcutaneously injected to BALB/C nude mouse (6 weeks age) at the body side. […] Five and 20 minutes after the injection, the animal was imaged with a gamma camera.
Immediately after the imaging, the animal was sacrificed and examined for the distribution of the radioactivity in each organ using NaI single channel analyzer to determine a ratio of the radioactivity in tumor site to the radioactivity in muscle site (T/B ratio).

inflammation site = settings: S. aureus inflammation rat
Method: Staphylococcus aureus 10^8 cells were suspended in 1 ml of physiological saline, and 100 μl of the suspension was intramuscularly administered to SD rats weighing about 220 g at the right calf. […] Thirty and 120 minutes after the peptide was injected, the animal was imaged with a gamma camera. Regions of interest were selected from the obtained image to determine a ratio T/B of the radioactivity in inflammation site (T) to the radioactivity in normal site (B).

| Substance | T/B ratio (radioactivity in tumor site to radioactivity in muscle site) (Tumor cells HEp2; i.v. tail vein, n=3) | Imaging of tumor site (gamma camera) (Tumor cells HEp2) | T/B ratio (radioactivity in inflammation site to radioactivity in normal site) (inflammation site; i.v. tail vein, regions of interest of image, n=6) | Imaging of inflammation site (gamma camera) (inflammation site; imaged 30 and 120 minutes after injection) |
| --- | --- | --- | --- | --- |
| Tc-99m-KYCAREPPTRTNAYWGQG (also: Tc-99m label) [Tc-99m-labeled peptide containing KYC at the N-terminus, for tumor imaging] | 4.50±0.71 | clearly imaged | – | – |
| Tc-99m-KYCGGKTKPREQQYNSTYRVV-NH2 | – | – | 3.26±0.18 | clearly imaged |
